# According to patent US10806717B2, “Methods and compositions for improving cognitive function” (The Johns Hopkins University, priority 2013, dated 2020):
# What was measured:
# [1] = system: Memory-impaired aged rats; test: Water maze probe test after chronic brivaracetam; type: in vivo, rat; conditions: brivaracetam 2 mg/kg/day by osmotic mini-pump
# Experimental: The radial arm maze experiments used acute administration of seletracetam (0-4 mg/kg), brivaracetam (0-4 mg/kg), or saline vehicle given by intraperitoneal injection (in a volume of 1 ml/kg) 30-40 min prior to test sessions. In the chronic treatment experiment, memory-impaired aged rats were implanted subcutaneously in the intrascapular region with osmotic mini-pumps (ALZET, Durect Corporation, Cupertino, Calif.) with brivaracetam (2 mg/kg/day) or saline vehicle starting two weeks prior to assessment in the water maze.
# Rats were trained and tested in a novel water maze environment to assess the effect of drug treatment. The water maze used here was housed in a different building and was surrounded by curtains with a novel set of patterns relative to the maze used for initial assessment of cognitive status. The training protocol consisted of 6 trials per day for 2 days to locate a submerged escape platform. On each trial, a rat was released in the maze from one of four equally spaced starting positions around the perimeter of the pool. The starting position varied from trial to trial. […] The rat was then removed from the platform and placed in a holding cage for another 40 s before the next trial. Approximately 24 hr after the last training trial, a probe test in the absence of the escape platform was given to assess spatial memory.
# [2] = system: Memory-impaired aged rats; test: Radial arm maze task with 2-hr delay, acute brivaracetam or seletracetam; type: in vivo, rat; conditions: acute i.p. 0.0625-4 mg/kg, 30-40 min before test; repeated measures ANOVA: brivaracetam p=0.039, seletracetam p=0.009
# MAM-treated rats [3] = conditions: cited from earlier work
# [4] = system: Memory-impaired aged rats; conditions: cited from earlier work
# aged-impaired (AI) rats = test: Radial Arm Maze task with one-hour delay, levetiracetam and/or valproate; type: in vivo, rat; conditions: valproate on its own
# MAM-treated rats [5] = conditions: rat, in vivo; cited from earlier work
compound,measurement,setting,value
CCC[C@@H]1CC(=O)N([C@@H](CC)C(N)=O)C1 [brivaracetam],spatial bias for the target quadrant compared to the other quadrants,"[1]; 14 days, n=3/group, t(2)=10.000, p=0.010",significant spatial bias
same,time in the target annulus compared to vehicle-treated rats,"[1]; t(4)=3.109, p=0.036",significantly more time
same,time in the target quadrant compared to vehicle-treated rats,"[1]; t(4)=3.881, p=0.018",significantly more time
same,number of errors in the retention phase after 2-hr delay,[2],significant effect as a function of dose
C#Cc1ccc2c(c1)C(c1ccccc1F)=N[C@H](C)c1c(C(=O)OCC)ncn1-2 [SH-053-2′F—R—CH3],number of spontaneously active DA neurons in the ventral tegmental area (VTA),"MAM-treated rats [3]; MAM rats, systemic or infused into ventral HPC, to levels of saline-treated rats",reduces
same,increased locomotor response to amphetamine,MAM-treated rats [3]; MAM-treated rats,reduced
same,cortical-evoked responses of HPC neurons,MAM-treated rats [3]; saline-treated and MAM-treated animals,diminished
"CCCC(CCC)C(=O)O [valproate, 2-propylpentanoate]",treatment of cognitive impairment,"[4]; 50 mg/kg/day, chronic subcutaneous administration",not effective
same,performance in a memory test,"[4]; 100 mg/kg/day, chronic subcutaneous administration",significantly improved
same,blood total valproate level,"[4]; rat, in vivo",10 μg/ml plasma
same,effective in reducing the number of errors,aged-impaired (AI) rats; 25 mg/kg or 50 mg/kg subcutaneous,not
same,effective in reducing the number of errors,aged-impaired (AI) rats; 100 mg/kg subcutaneous,effective
NC1=N[C@H](O)[C@H]2[C@H]3O[C@]4(O)O[C@@H]([C@@H](O)[C@@]2(N1)[C@@H]4O)[C@]3(O)CO [tetrodotoxin],augmented amphetamine-induced locomotor behavior,MAM-treated rats [5],normalized
same,elevated DA neuron population activity,MAM-treated rats [5],completely reversed
CC[C@@H](C(N)=O)N1C[C@H](C=C(F)F)CC1=O [seletracetam],number of errors in the retention phase after 2-hr delay,[2],significant effect as a function of dose
